Measured values: PubChem BioAssay (NCI)
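Grown in 96-well plates, cells were treated for 48 hours with each compound at five concentrations. Insufficient inhibition: endpoint recorded as highest concentration tested. TGI: concentration producing complete growth inhibition.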

What was measured:
Assay in all cases: NCI-60 cell line screen, 48 h
[1] = tested on: SNB-75 CNS
[2] = tested on: SK-MEL-5 melanoma
[3] = tested on: HL-60(TB) leukemia
[4] = tested on: HT29 colon
[5] = tested on: MCF7 breast
[6] = tested on: MDA-N
[7] = tested on: RPMI-8226 leukemia
[8] = tested on: SK-MEL-2 melanoma
[9] = tested on: SW-620 colon
[10] = tested on: HCC-2998 colon
[11] = tested on: SF-539 CNS
[12] = tested on: OVCAR-8 ovarian
[13] = tested on: MDA-MB-231 breast
[14] = tested on: T-47D breast
[15] = tested on: SF-295 CNS
[16] = tested on: UACC-257 melanoma
[17] = tested on: MALME-3M melanoma
[18] = tested on: UO-31 renal
[19] = tested on: CAKI-1 renal
[20] = tested on: HCT-116 colon
[21] = tested on: COLO 205 colon
[22] = tested on: TK-10 renal
[23] = tested on: M14 melanoma
[24] = tested on: HS 578T breast
[25] = tested on: HOP-92 NSCLC
[26] = tested on: BT-549 breast
[27] = tested on: OVCAR-3 ovarian
[28] = tested on: LOX IMVI melanoma
[29] = tested on: A549 NSCLC
[30] = tested on: EKVX NSCLC
[31] = tested on: NCI/ADR-RES ovarian
[32] = tested on: NCI-H226 lung
[33] = tested on: A498 renal
[34] = tested on: HCT-15 colon
[35] = tested on: DU-145 prostate
[36] = tested on: SNB-19 CNS
[37] = tested on: ACHN renal
[38] = tested on: NCI-H23 lung
[39] = tested on: K-562 leukemia
[40] = tested on: PC-3 prostate
[41] = tested on: SK-MEL-28 melanoma
[42] = tested on: OVCAR-4 ovarian
[43] = tested on: MOLT-4 leukemia
[44] = tested on: 786-0 renal
[45] = tested on: NCI-H460 lung
[46] = tested on: SN12C renal
[47] = tested on: NCI-H522 lung
[48] = tested on: OVCAR-5 ovarian
[49] = tested on: MDA-MB-435
[50] = tested on: SF-268 CNS
[51] = tested on: UACC-62 melanoma
[52] = tested on: U251 CNS
[53] = tested on: IGROV1 ovarian
[54] = tested on: KM12 colon
[55] = tested on: SK-OV-3 ovarian
[56] = tested on: CCRF-CEM leukemia
[57] = tested on: RXF 393 renal
[58] = tested on: HOP-62 NSCLC

Measured: TGI

OCc1cc2c([nH]c3ccccc32)c(C(O)CO)n1 (configuration not stated)
> 100 µM: [1] | [2] | [3] | [4] | [5] | [6] | [7] | [8] | [9] | [10] | [11] | [12] | [13] | [14] | [15] | [16] | [17] | [18] | [19] | [20] | [21] | [22] | [23] | [24] | [25] | [26] | [27] | [28] | [29] | [30] | [31] | [32] | [33] | [34] | [35] | [36] | [37] | [38] | [39] | [40] | [41] | [42] | [43] | [44] | [45] | [46] | [47] | [48] | [49] | [50] | [51] | [52] | [53] | [54] | [55] | [56]

COc1ccc(Cc2c(N)[nH]c(=O)[nH]c2=O)cc1
> 100 µM: [1] | [2] | [4] | [6] | [7] | [8] | [9] | [10] | [11] | [12] | [13] | [57] | [14] | [15] | [16] | [17] | [18] | [19] | [20] | [21] | [22] | [23] | [24] | [25] | [58] | [26] | [27] | [28] | [29] | [30] | [31] | [32] | [33] | [34] | [36] | [37] | [38] | [39] | [40] | [41] | [42] | [44] | [45] | [46] | [47] | [48] | [49] | [50] | [51] | [52] | [53] | [54] | [55]

CN1C(=O)C(/C=N/NC(=O)c2cccnc2)C(N)N(C)C1=O (configuration not stated)
> 100 µM: [1] | [2] | [4] | [5] | [6] | [7] | [8] | [9] | [10] | [12] | [13] | [57] | [14] | [15] | [16] | [17] | [18] | [19] | [20] | [21] | [22] | [23] | [24] | [58] | [26] | [27] | [29] | [30] | [31] | [32] | [34] | [35] | [36] | [37] | [38] | [39] | [40] | [41] | [42] | [43] | [44] | [45] | [46] | [47] | [48] | [49] | [50] | [51] | [52] | [53] | [54] | [55] | [56]
